Calls of active or inactive are those of the source. The calls are words filed in the database; no cut-off is given here.
Columns and labels:
[1] = Selectivity index, ratio of CC50 for human A549 cells to IC50 for […] influenza A H5N1 pseudotyped virus infected in A549 cells; assay type: toxicity, cell-based; settings: read-out: Ratio CC50/IC50
[2] = Selectivity index, ratio of CC50 for human A549 cells to IC50 for VSV pseudotyped virus infected in A549 cells; assay type: toxicity, cell-based; settings: read-out: Ratio CC50/IC50
Influenza A virus [3] = experiment: Antiviral activity against […] influenza A H5N1 pseudotyped virus infected in A549 cells assessed as inhibition of viral entry incubated for 48 hrs by measuring luciferase activity by Neolite reporter gene assay; assay type: functional, organism-based; settings: H5N1, A549, 48 h
[4] = Selectivity index, ratio of CC50 for human A549 cells to IC50 for group 2 influenza A H7N1 pseudotyped virus infected in A549 cells; assay type: toxicity, cell-based; settings: read-out: Ratio CC50/IC50
[5] = test system: Vesicular stomatitis virus; experiment: Antiviral activity against VSV pseudotyped virus infected in A549 cells assessed as inhibition of viral entry incubated for 48 hrs by measuring luciferase activity by Neolite reporter gene assay; assay type: functional, organism-based; settings: A549, 48 h
Influenza A virus [6] = experiment: Antiviral activity against group 2 influenza A H7N1 pseudotyped virus infected in A549 cells assessed as inhibition of viral entry incubated for 48 hrs by measuring luciferase activity by Neolite reporter gene assay; assay type: functional, organism-based; settings: H7N1, A549, 48 h
[7] = Cytotoxicity against human A549 cells incubated for 48 hrs by celltiter-glo luminescent cell viability assay; assay type: toxicity, cell-based
Influenza A virus [8] = experiment: Antiviral activity against group 2 influenza A virus H3N2 (A/Victoria/361/2011) infected in MDCK cells infected with supernatant of compound treated virus-producing human A549 cells assessed as reduction in viral titer at 1 to 10 uM treated for 48 hrs with virus-producing human A549 cells followed by MDCK cells infection for 48 hrs by crystal violet staining based plaque assay; assay type: functional, organism-based; settings: dose 1-10 µM, time 96.0 hrs
Influenza A virus [9] = experiment: Antiviral activity against group 2 influenza A virus H3N2 (A/Hong Kong-11/1968) infected in MDCK cells infected with supernatant of compound treated virus-producing human A549 cells assessed as reduction in viral titer at 1 to 10 uM treated for 48 hrs with virus-producing human A549 cells followed by MDCK cells infection for 48 hrs by crystal violet staining based plaque assay; assay type: functional, organism-based; settings: dose 1-10 µM, time 96.0 hrs

SMILES: CCCCOc1ccc(-c2nc3ncccn3c2NC2CCCCC2)cc1
- selectivity ratio [1]: 1
- selectivity ratio [2]: 2
- IC50 (Influenza A virus [3]): 84 µM
- selectivity ratio [4]: 78
- IC50 [5]: 36 µM
- IC50 (Influenza A virus [6]): 670 nM
- CC50 at 48 h [7]: 52 µM

SMILES: CCCCOc1ccc(-c2nc3ncccn3c2NCc2ccccn2)cc1
- selectivity ratio [4]: > 6
- IC50 (Influenza A virus [6]): 16000 nM
- CC50 at 48 h [7]: > 100 µM

SMILES: Fc1ccc(-c2nc3ncccn3c2NC2CCCCC2)cc1
- Activity (Influenza A virus [8]): Active
- IC50 (Influenza A virus [3]): 46 µM
- IC50 [5]: 53 µM
- IC50 (Influenza A virus [6]): 23 nM
- Activity (Influenza A virus [9]): Active
- CC50 at 48 h [7]: 100 µM

SMILES: Oc1ccc(-c2nc3ncccn3c2NC2CCCCC2)cc1
- Activity (Influenza A virus [8]): Active
- IC50 (Influenza A virus [3]): 36 µM
- IC50 [5]: 65 µM
- IC50 (Influenza A virus [6]): 52 nM
- Activity (Influenza A virus [9]): Active
- CC50 at 48 h [7]: > 100 µM

SMILES: Oc1cccc(-c2nc3ncccn3c2NC2CCCCC2)c1
- selectivity ratio [4]: 10
- IC50 (Influenza A virus [6]): 10000 nM
- CC50 at 48 h [7]: 100 µM

SMILES: CCCCOc1ccc(-c2nc3ncccn3c2N)cc1
- selectivity ratio [4]: > 1
- IC50 (Influenza A virus [6]): 100000 nM
- CC50 at 48 h [7]: > 100 µM

SMILES: Brc1ccc(-c2nc3ncccn3c2NC2CCCCC2)cc1
- Activity (Influenza A virus [8]): Active
- IC50 (Influenza A virus [3]): > 100 µM
- IC50 [5]: 42 µM
- IC50 (Influenza A virus [6]): 200 nM
- Activity (Influenza A virus [9]): Active
- CC50 at 48 h [7]: > 100 µM

SMILES: CCCCOc1ccc(-c2nc3ncccn3c2NCc2ccc3ccccc3c2)cc1
- selectivity ratio [4]: 6
- IC50 (Influenza A virus [6]): 6000 nM
- CC50 at 48 h [7]: 33 µM

SMILES: CCOC(=O)CCCOc1ccc(-c2nc3ncccn3c2NC2CCCCC2)cc1
- selectivity ratio [4]: > 560
- IC50 (Influenza A virus [6]): 1800 nM
- CC50 at 48 h [7]: > 100 µM

SMILES: CCNC(=O)CCCOc1ccc(-c2nc3ncccn3c2NC2CCCCC2)cc1
- selectivity ratio [4]: > 1600
- IC50 (Influenza A virus [6]): 64 nM
- CC50 at 48 h [7]: > 100 µM

SMILES: CCCCOc1ccc(-c2nc3ncccn3c2NCC2CC2)cc1
- selectivity ratio [4]: > 4
- IC50 (Influenza A virus [6]): 25000 nM
- CC50 at 48 h [7]: > 100 µM

SMILES: CCCCOc1ccc(-c2nc3ncccn3c2NC(C)(C)CC(C)(C)C)cc1
- selectivity ratio [4]: 13
- IC50 (Influenza A virus [6]): 2300 nM
- CC50 at 48 h [7]: 29 µM

SMILES: CCCCOc1ccc(-c2nc3ncccn3c2NCc2ccc(OC)cc2)cc1
- selectivity ratio [4]: 4
- IC50 (Influenza A virus [6]): 14000 nM
- CC50 at 48 h [7]: 55 µM

SMILES: CCCCOc1ccc(-c2nc3ncccn3c2NC2CCCC2)cc1
- selectivity ratio [4]: 27
- IC50 (Influenza A virus [6]): 1500 nM
- CC50 at 48 h [7]: 40 µM

SMILES: CCCCOc1ccc(-c2nc3ncccn3c2Nc2ccccc2)c(C)c1
- selectivity ratio [4]: 5.1
- IC50 (Influenza A virus [6]): 4500 nM
- CC50 at 48 h [7]: 23 µM

SMILES: CCCCOc1ccc(-c2nc3ncccn3c2NC2CCCCC2)c(C)c1
- selectivity ratio [4]: 150
- IC50 (Influenza A virus [6]): 220 nM
- CC50 at 48 h [7]: 32 µM

SMILES: Fc1ccc(COc2ccc(-c3nc4ncccn4c3NC3CCCCC3)cc2)cc1
- selectivity ratio [4]: 92
- IC50 (Influenza A virus [6]): 260 nM
- CC50 at 48 h [7]: 24 µM

SMILES: CCCCOc1ccc(-c2nc3ncccn3c2NCc2c[nH]cn2)cc1
- selectivity ratio [4]: > 3
- IC50 (Influenza A virus [6]): 38000 nM
- CC50 at 48 h [7]: > 100 µM

SMILES: CCCCOc1ccc(-c2nc3ncccn3c2NC2CCCCCC2)cc1
- selectivity ratio [4]: 59
- IC50 (Influenza A virus [6]): 440 nM
- CC50 at 48 h [7]: 26 µM

SMILES: CCCCOc1ccc(-c2nc3ncccn3c2NCCC)cc1
- selectivity ratio [4]: > 5
- IC50 (Influenza A virus [6]): 22000 nM
- CC50 at 48 h [7]: > 100 µM

SMILES: CCCCOc1ccc(-c2nc3ncccn3c2NCC2CCCCC2)cc1
- selectivity ratio [4]: 110
- IC50 (Influenza A virus [6]): 310 nM
- CC50 at 48 h [7]: 35 µM

SMILES: Cc1cc(C)n2c(NC3CCCCC3)c(-c3ccc(Br)cc3)nc2n1
- selectivity ratio [4]: 51
- IC50 (Influenza A virus [6]): 360 nM
- CC50 at 48 h [7]: 32 µM

SMILES: c1cnc2nc(-c3ccc(OC4CCCC4)cc3)c(NC3CCCCC3)n2c1
- selectivity ratio [4]: 57
- IC50 (Influenza A virus [6]): 680 nM
- CC50 at 48 h [7]: 39 µM

SMILES: Oc1ccccc1-c1nc2ncccn2c1NC1CCCCC1
- selectivity ratio [4]: > 10
- IC50 (Influenza A virus [6]): 10000 nM
- CC50 at 48 h [7]: > 100 µM

SMILES: CCCCOc1ccc(-c2nc3ncccn3c2NC(C)C)cc1
- selectivity ratio [4]: 30
- IC50 (Influenza A virus [6]): 2300 nM
- CC50 at 48 h [7]: 68 µM

SMILES: Cc1cc(C)n2c(Nc3ccc4c(c3)OCCO4)c(-c3cccc(Br)c3)nc2n1
- selectivity ratio [4]: > 400
- IC50 (Influenza A virus [6]): 250 nM
- CC50 at 48 h [7]: > 100 µM

SMILES: O=C(O)CCCOc1ccc(-c2nc3ncccn3c2NC2CCCCC2)cc1
- selectivity ratio [4]: > 560
- IC50 (Influenza A virus [6]): 180 nM
- CC50 at 48 h [7]: > 100 µM

SMILES: Brc1ccc(-c2nc3ncccn3c2Nc2ccccc2)cc1
- selectivity ratio [4]: > 67
- IC50 (Influenza A virus [6]): 1500 nM
- CC50 at 48 h [7]: > 100 µM

SMILES: CCCCOc1ccc(-c2nc3ncccn3c2Nc2ccc(F)cc2)cc1
- selectivity ratio [4]: > 67
- IC50 (Influenza A virus [6]): 1500 nM
- CC50 at 48 h [7]: > 100 µM

SMILES: CCCCOc1ccc(-c2c(NC(C)(C)CC(C)(C)C)nc3ncccn23)cc1
- selectivity ratio [4]: 6
- IC50 (Influenza A virus [6]): 8100 nM
- CC50 at 48 h [7]: 49 µM

SMILES: CCCCOc1ccc(-c2nc3ncccn3c2N2C(=O)c3cccc(O)c3C2=O)cc1
- selectivity ratio [4]: > 6.6
- IC50 (Influenza A virus [6]): 15000 nM
- CC50 at 48 h [7]: > 100 µM

SMILES: CCCCOc1ccc(-c2c(N)nc3ncccn23)cc1
- selectivity ratio [4]: > 1.7
- IC50 (Influenza A virus [6]): 58000 nM
- CC50 at 48 h [7]: > 100 µM

SMILES: CC(C)(C)CC(C)(C)Nc1c(-c2ccc(Br)cc2)nc2ncccn12
- selectivity ratio [4]: 32
- IC50 (Influenza A virus [6]): 1000 nM
- CC50 at 48 h [7]: 32 µM

SMILES: Nc1nc2ncccn2c1-c1ccc(Br)cc1
- selectivity ratio [4]: > 1
- IC50 (Influenza A virus [6]): 100000 nM
- CC50 at 48 h [7]: > 100 µM

SMILES: COCCOc1ccc(-c2nc3ncccn3c2NC2CCCCC2)cc1
- selectivity ratio [4]: > 1300
- IC50 (Influenza A virus [6]): 80 nM
- CC50 at 48 h [7]: > 100 µM

SMILES: CN(c1c(-c2ccc(F)cc2)nc2ncccn12)C1CCCCC1
- selectivity ratio [4]: > 77
- IC50 (Influenza A virus [6]): 1300 nM
- CC50 at 48 h [7]: > 100 µM

SMILES: CCOC(=O)C1=C[C@@H](OC(CC)CC)[C@H](NC(C)=O)[C@@H](N)C1 [OSELTAMIVIR]
- Activity (Influenza A virus [8]): Active
- Activity (Influenza A virus [9]): Active

SMILES: COc1ccccc1-c1nc2ncccn2c1N(C(C)=O)C1CCCCC1
- selectivity ratio [4]: > 1
- IC50 (Influenza A virus [6]): > 100000 nM
- CC50 at 48 h [7]: > 100 µM

SMILES: Nc1c(-c2ccc(Br)cc2)nc2ncccn12
- selectivity ratio [4]: > 1
- IC50 (Influenza A virus [6]): 100000 nM
- CC50 at 48 h [7]: > 100 µM

SMILES: c1ccc(-c2nc3ncccn3c2NC2CCCCC2)cc1
- Activity (Influenza A virus [8]): Active
- IC50 (Influenza A virus [3]): 46 µM
- IC50 [5]: 74 µM
- IC50 (Influenza A virus [6]): 660 nM
- Activity (Influenza A virus [9]): Active
- CC50 at 48 h [7]: 100 µM

SMILES: CCCCOc1ccc(-c2nc3ncccn3c2NCc2ccco2)cc1
- selectivity ratio [4]: 10
- IC50 (Influenza A virus [6]): 7900 nM
- CC50 at 48 h [7]: 78 µM

SMILES: CC(C)(C)CC(C)(C)Nc1nc2ncccn2c1-c1ccc(Br)cc1
- selectivity ratio [4]: > 12
- IC50 (Influenza A virus [6]): 8600 nM
- CC50 at 48 h [7]: > 100 µM

SMILES: Cc1cc(Br)ccc1-c1nc2ncccn2c1NC1CCCCC1
- Activity (Influenza A virus [8]): Active
- IC50 (Influenza A virus [3]): 45 µM
- IC50 [5]: 39 µM
- IC50 (Influenza A virus [6]): 170 nM
- Activity (Influenza A virus [9]): Active
- CC50 at 48 h [7]: 45 µM

SMILES: COCCOc1ccc(-c2nc3ncccn3c2Nc2ccccc2)cc1
- selectivity ratio [4]: > 19
- IC50 (Influenza A virus [6]): 5200 nM
- CC50 at 48 h [7]: > 100 µM

SMILES: CCCCOc1ccc(-c2nc3ncccn3c2NCc2nc[nH]c2C)cc1
- selectivity ratio [4]: 1
- IC50 (Influenza A virus [6]): 100000 nM
- CC50 at 48 h [7]: 100 µM

SMILES: CCCCOc1ccc(-c2nc3ncccn3c2Nc2ccccc2)cc1
- selectivity ratio [4]: 1
- IC50 (Influenza A virus [6]): 100000 nM
- CC50 at 48 h [7]: 100 µM
